Read-outs that look alike come from different tables or passages of the source.
Target: T1, HRP Type VIA (Armoracia rusticana, UniProt P00433)
T1 sequence (P00433 31-338): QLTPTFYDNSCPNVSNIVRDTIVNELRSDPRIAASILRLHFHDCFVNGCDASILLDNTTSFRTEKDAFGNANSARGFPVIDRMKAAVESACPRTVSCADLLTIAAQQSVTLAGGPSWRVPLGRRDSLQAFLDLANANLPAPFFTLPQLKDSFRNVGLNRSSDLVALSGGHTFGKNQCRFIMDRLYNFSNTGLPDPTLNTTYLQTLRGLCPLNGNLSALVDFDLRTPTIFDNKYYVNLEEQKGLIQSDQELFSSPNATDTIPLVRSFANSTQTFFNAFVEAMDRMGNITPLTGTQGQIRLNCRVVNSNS
Conditions: 10µl test compound; for (d) Signal: Background: ratio (control = with no enhancer): control value in brackets not reported

Compound	(a) Decrease in background (without HRP with test cpd.) (0.01 mg/ml)	(b) Increase in signal (with HRP, with test cpd.) (0.01 mg/ml)	(c) Increase in signal: background ratio (0.01 mg/ml)	(d) Signal: Background: ratio (control = with no enhancer) (0.01 mg/ml)	(a) Decrease in background (without HRP with test cpd.) (0.1 mg/ml)	(b) Increase in signal (with HRP, with test cpd.) (0.1 mg/ml)	(c) Increase in signal: background ratio (0.1 mg/ml)	(d) Signal: Background: ratio (control = with no enhancer) (0.1 mg/ml)	(a) Decrease in background (without HRP with test cpd.) (1 mg/ml)	(b) Increase in signal (with HRP, with test cpd.) (1 mg/ml)	(c) Increase in signal: background ratio (1 mg/ml)	(d) Signal: Background: ratio (control = with no enhancer) (1 mg/ml)
OB(O)c1ccc(Nc2ccc(Cl)cc2)cc1 [Compound 1033, 4-(4'-chloroanilino)phenylboronic acid]	Y	Y	Y (Column (c) shows whether there was an increase in the signal:background ratio by over 25% of the control value (Y = yes)	4.1 (1.8)	Y	Y	Y (Column (c) shows whether there was an increase in the signal:background ratio by over 25% of the control value (Y = yes)	67.7 (2.8)	Y	Y	Y (Column (c) shows whether there was an increase in the signal:background ratio by over 25% of the control value (Y = yes)	173.9 (4.5)
Cc1ccc(B(O)O)cc1 [Compound 1034, 4-methylphenylboronic acid]	Y	N	Y (Column (c) shows whether there was an increase in the signal:background ratio by over 25% of the control value (Y = yes)	3.6 (1.9)	Y	Y	Y (Column (c) shows whether there was an increase in the signal:background ratio by over 25% of the control value (Y = yes)	41.2 (2.9)	Y	N	N (N = no)	–
OB(O)c1ccc(B(O)O)cc1 [Compound 1035, 1,4-phenyldiboronic acid]	Y	N	N (N = no)	2.1 (2.0)	Y	N	N (N = no)	–	Y	N	N (N = no)	–
OB(O)c1ccc(-c2ccc(B(O)O)cc2)cc1 [Compound 1037, 4,4'-bis(phenylboronic acid)]	Y	Y	Y (Column (c) shows whether there was an increase in the signal:background ratio by over 25% of the control value (Y = yes)	35.5 (1.9)	Y	Y	Y (Column (c) shows whether there was an increase in the signal:background ratio by over 25% of the control value (Y = yes)	503.3 (2.9)	Y	N	N (N = no)	–

Source: patent EP0626016B1, “[…] […]” (BRITISH TECHNOLOGY GROUP LIMITED, priority 1992, dated 1993)
